Values quoted from earlier work in PMC11476552, “Synthesis and Preliminary Studies for In Vitro Biological Activity of Two New Water-Soluble Bis(thio)carbohydrazones and Their Copper(II) and Zinc(II) Complexes” (International Journal of Molecular Sciences, 2024).

Parameters: method as in PMID 29334758
Conditions: cited from earlier work

| Structure (SMILES) | cytotoxic activity (in words) |
| --- | --- |
| S=C(N/N=C1\CCCc2cccnc21)N1CCN(c2ccccn2)CC1 [COTI-2] | nanomolar cytotoxic activity |
| CN(C(=S)NN=C(c1ccccn1)c1ccccn1)C1CCCCC1 [DpC, di-2-pyridylketone 4-cyclohexyl-4-methyl-3-thiosemicarbazone] | nanomolar cytotoxic activity |
